Data as given in BindingDB's records for doi:10.1021/jm070643q (Universit&#224, 2007).

target: beta-lactamase AmpC (Escherichia coli) (UniProt P00811); experiment: Inhibition of Escherichia coli beta-lactamase
Sequence (P00811 whole entry, looked up): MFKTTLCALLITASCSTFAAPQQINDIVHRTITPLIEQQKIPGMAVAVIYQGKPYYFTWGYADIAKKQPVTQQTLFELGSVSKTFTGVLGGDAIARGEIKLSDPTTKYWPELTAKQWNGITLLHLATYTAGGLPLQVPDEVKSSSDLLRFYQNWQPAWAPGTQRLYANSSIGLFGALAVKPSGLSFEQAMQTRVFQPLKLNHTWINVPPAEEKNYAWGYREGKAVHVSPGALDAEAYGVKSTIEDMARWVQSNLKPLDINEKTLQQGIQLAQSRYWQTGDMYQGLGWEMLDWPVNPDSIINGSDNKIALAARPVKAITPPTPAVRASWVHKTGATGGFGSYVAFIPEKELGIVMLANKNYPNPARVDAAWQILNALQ

SMILES | Ki [nM]
O=CNCc1ccc2sc(B(O)O)cc2c1 [5-formylaminomethylbenzo[b]thiophen-2-ylboronic acid] | 450
OB(O)c1cc2cc(Cn3ccnc3)ccc2s1 [5-imidazol-1-yl-methylbenzo[b]thiophen-2-ylboronic acid] | 82
Cc1ccc2sc(B(O)O)cc2c1 [5-methyl-benzo[b]thiophen-2-ylboronic acid] | 30
